Results from patent US20250144067A1, “PERSONALIZED STARVATION THERAPY FOR CANCER” (Faeth Therapeutics, Inc., priority 2021, published 2025).
Where a name gives a salt, the structure may show the parent alone. Read-outs that look alike come from different tables or passages of the source.

Key:
[1] = tested on: NCI-H292 lung cancer cells; experiment: FDA drug screening, complete media vs cholesterol-free media without statin (TABLE 1); format: cell-based, human
[2] = tested on: NCI-H292 lung cancer cells; experiment: FDA drug screening, complete media vs cholesterol-free media with simvastatin (TABLE 2); format: cell-based, human
[3] = Complete minus Cholesterol-free, […]
[4] = NCI-H292 cells, cholesterol-free media without statin
[5] = NCI-H292 cells, drug in cholesterol-free media with simvastatin 0.04 μM
[6] = NCI-H292 cells, drug in complete media
[7] = complete media vs cholesterol-free media + simvastatin (0.04 μM), […]
[8] = complete vs cholesterol-free media, greater than 0 enhanced anti-cancer activity, about 0 neutral, below 0 antagonists
[9] = NCI-H292 cells, FDA drug library screen, cholesterol-free media with simvastatin 0.04 μM
[10] = NCI-H292 cells, FDA drug library screen, complete media
[11] = complete media minus cholesterol-free media + simvastatin, >0 enhanced anti-cancer activity, about 0 neutral, <0 antagonist
[12] = NCI-H292 cells, cholesterol-free media with simvastatin 0.04 μM, FDA drug library screen (TABLE 2)
[13] = NCI-H292 cells, complete media, FDA drug library screen (TABLE 2)
[14] = complete media minus cholesterol-free media + simvastatin (0.04 μM), >0 enhanced anti-cancer activity, about 0 neutral, <0 antagonist
[15] = Complete minus Cholesterol-free, >0 enhanced anti-cancer activity, about 0 neutral, <0 antagonist
[16] = NCI-H292 cells, cholesterol-free media without statin, FDA drug library screen
[17] = NCI-H292 cells, complete media, FDA drug library screen
[18] = NCI-H292 cells, FDA library drug in cholesterol-free media with simvastatin 0.04 μM
[19] = NCI-H292 cells, FDA library drug in complete media
[20] = complete media vs cholesterol-free media + simvastatin (0.04 μM), >0 enhanced anti-cancer activity, about 0 neutral, <0 antagonist
[21] = complete vs cholesterol-free media, >0 enhanced anti-cancer activity, about 0 neutral, <0 antagonist
[22] = NCI-H292 cells, cholesterol-free media with simvastatin 0.04 μM, cell growth value in FDA drug screen
[23] = NCI-H292 cells, complete media, cell growth value in FDA drug screen
[24] = Complete minus Cholesterol-free, greater than 0 enhanced anti-cancer activity, about 0 neutral, below 0 antagonist
[25] = NCI-H292 cells, FDA drug library screen, cholesterol-free media without statin
[26] = Complete minus Cholesterol-free, greater than 0 enhanced anti-cancer activity, about 0 neutral, below 0 antagonists
[27] = NCI-H292 cells in cholesterol-free media without statin
[28] = NCI-H292 cells in complete media

Molecule | Cholesterol-free [1, 4] | Complete ([1]; NCI-H292 cells, complete media) | Cholesterol-free media + simvastatin (0.04 μM) [2, 9] | Complete Media [2, 10] | Difference [2, 11] | Cholesterol-free [1, 16] | Complete [1, 17] | Difference [2, 20] | further results
N#Cc1c(N2C[C@@H]3NCCO[C@H]3C2)c(F)cc2c(=O)c(C(=O)O)cn(C3CC3)c12 [Finafloxacin] | 1.006 | 0.7899 |  |  |  |  |  |  | Difference [1, 3]: −0.22; Cholesterol-free media + simvastatin (0.04 μM) [2, 5]: 1.227; Complete Media [2, 6]: 0.9973; Difference [2, 7]: −0.23
CCCN1C[C@H](C)[C@@H](O)[C@](C)(O)[C@@H](CC)OC(=O)[C@H](C)[C@@H](O[C@H]2C[C@@](C)(OC)[C@@H](O)[C@H](C)O2)[C@H](C)[C@@H](O[C@@H]2O[C@H](C)C[C@H](N(C)C)[C@H]2O)[C@](C)(O)C[C@H]1C [Gamithromycin] | 1.35 | 0.886 | 1.403 | 1.765 | 0.36 |  |  |  | Difference [1, 8]: −0.46
O=C1NCN(c2ccccc2)C12CCN(CCCC(c1ccc(F)cc1)c1ccc(F)cc1)CC2 [Fluspirilene] | 1.319 | 0.9067 |  |  |  |  |  |  | Difference [1, 8]: −0.41; Cholesterol-free media + simvastatin (0.04 μM) [2, 12]: 1.267; Complete Media [2, 13]: 1.241; Difference [2, 14]: −0.03
N[C@@H](CSCC(=O)O)C(=O)O [Carbocisteine] |  |  |  |  |  | 1.486 | 1.447 |  | Difference [1, 15]: −0.04; Cholesterol-free media + simvastatin (0.04 μM) [2, 12]: 0.934; Complete Media [2, 13]: 0.9494; Difference [2, 14]: 0.02
O=C(OCCOCCO)c1ccccc1Nc1cccc(C(F)(F)F)c1 [Etofenamate] |  |  |  |  |  | 1.014 | 1.036 | −0.86 | Difference [1, 15]: 0.02; Cholesterol-free media + simvastatin (0.04 μM) [2, 18]: 2.387; Complete Media [2, 19]: 1.527
Cn1c(=O)c2c(ncn2CCO)n(C)c1=O [Etofylline] |  |  | 0.885 | 1.042 | 0.16 | 1.261 | 1.355 |  | Difference [1, 21]: 0.09
Cc1cn([C@H]2C[C@H](N=[N+]=[N-])[C@@H](CO)O2)c(=O)[nH]c1=O [Zidovudine] |  |  |  |  |  | 1.211 | 1.205 | −0.59 | Difference [1, 15]: −0.01; Cholesterol-free media + simvastatin (0.04 μM) [2, 18]: 1.856; Complete Media [2, 19]: 1.268
NNC(=O)c1ccncc1 [Isoniazid] |  |  | 1.455 | 1.672 | 0.22 | 0.6633 | 1.357 |  | Difference [1, 21]: 0.69
C#Cc1cccc(Nc2ncnc3cc(OCCOC)c(OCCOC)cc23)c1 [Erlotinib (Hydrochloride)] |  |  |  |  | 0.03 | 0.2078 | 0.4921 |  | Difference [1, 21]: 0.28; Cholesterol-free media + simvastatin (0.04 μM) [2, 22]: 0.6388; Complete Media [2, 23]: 0.67
CCOC(=O)c1ccc(C#Cc2ccc3c(c2)C(C)(C)CCS3)nc1 [Tazarotene] |  |  |  |  |  |  |  |  | Difference [1, 24]: −0.11; Cholesterol-free [1, 25]: 0.7313; Complete [1, 10]: 0.6177; Cholesterol-free media + simvastatin (0.04 μM) [2, 12]: 0.9107; Complete Media [2, 13]: 0.8646; Difference [2, 14]: −0.05
Nc1nc(Cl)nc2c1ncn2[C@H]1C[C@H](O)[C@@H](CO)O1 [Cladribine] |  |  | 0.1545 | 0.02741 |  | −0.008506 | 0.0649 | −0.13 | Difference [1, 15]: 0.07
CCn1cc(C(=O)O)c(=O)c2ccc(C)nc21 [Nalidixic acid] | 1.332 | 0.9692 |  |  |  |  |  |  | Difference ([1]; complete vs cholesterol-free media, […]): −0.36; Cholesterol-free media + simvastatin (0.04 μM) [2, 5]: 1.203; Complete Media [2, 6]: 0.9667; Difference [2, 7]: −0.24
Cc1cn([C@H]2O[C@@H](CO)[C@H](O)[C@H]2F)c(=O)[nH]c1=O [Clevudine] |  |  | 0.7152 | 0.881 | 0.17 | 0.975 | 0.9127 |  | Difference [1, 15]: −0.06
CC1(C)C[C@@H]1C(=O)N/C(=C\CCCCSC[C@H](N)C(=O)O)C(=O)O [Cilastatin] |  |  |  |  |  |  |  |  | Cholesterol-free [1]: 1.185; Complete [1]: 0.8515; Difference [1]: −0.33; Cholesterol-free media + simvastatin (0.04 μM) [2]: 1.258; Complete Media [2]: 0.85; Difference [2]: −0.41
CCN(CC)C(=O)c1ccc(O)c(OC)c1 [Etamivan] |  |  |  |  |  |  |  | −0.31 | Difference [1, 26]: −0.50; Cholesterol-free [1, 27]: 1.483; Complete [1, 28]: 0.9848; Cholesterol-free media + simvastatin (0.04 μM) [2, 18]: 1.227; Complete Media [2, 19]: 0.9141
Sc1ncnc2nc[nH]c12 [6-Mercaptopurine] | 0.7087 | 0.4285 | 1.121 | 0.9807 |  |  |  | −0.14 | Difference [1, 15]: −0.28
Cn1c(=O)c2c(ncn2CC2OCCO2)n(C)c1=O [Doxofylline] | 1.338 | 0.9897 |  |  |  |  |  | −0.28 | Difference [1, 8]: −0.35; Cholesterol-free media + simvastatin (0.04 μM) [2, 18]: 1.302; Complete Media [2, 19]: 1.024
COc1ccc(CCN(C)CCC[C@](C#N)(c2ccc(OC)c(OC)c2)C(C)C)cc1OC.Cl [(R)-Verapamil (hydrochloride)] |  |  | 1.005 | 0.92 |  | 0.8697 | 0.8867 |  | Difference [1, 3]: 0.02; Difference [2, 7]: −0.08
Streptomycin (sulfate) |  |  |  |  |  |  |  |  | Difference [1, 3]: −1.05; Cholesterol-free [1, 27]: 2.317; Complete [1, 28]: 1.265; Cholesterol-free media + simvastatin (0.04 μM) [2, 5]: 1.77; Complete Media [2, 6]: 1.586; Difference [2, 7]: −0.18
CN1CCCN=C1/C=C/c1cccc(O)c1.O=C(O)c1cc2ccccc2c(Cc2c(O)c(C(=O)O)cc3ccccc23)c1O [Oxantel (pamoate)] |  |  | 0.9072 | 1.051 | 0.14 |  |  |  | Difference [1, 26]: −0.51; Cholesterol-free [1, 27]: 1.526; Complete [1, 28]: 1.019
CC[C@H]1OC(=O)[C@H](C)[C@@H](O[C@H]2C[C@@](C)(OC)[C@@H](O)[C@H](C)O2)[C@H](C)[C@@H](O[C@@H]2O[C@H](C)C[C@H](N(C)C)[C@H]2O)[C@](C)(O)C[C@@H](C)/C(=N\OCOCCOC)[C@H](C)[C@@H](O)[C@]1(C)O [Roxithromycin] |  |  | 0.9837 | 0.8382 |  | 0.9904 | 1.336 | −0.15 | Difference [1, 21]: 0.35
N#CC(c1ccc(Cl)cc1)c1c(Cl)cc(-n2ncc(=O)[nH]c2=O)cc1Cl (stereo not drawn) [Diclazuril] |  |  | 1.052 | 0.9766 |  | 0.7362 | 1.131 | −0.08 | Difference [1, 21]: 0.39
CC(C)=CCC[C@](C)(O)[C@H]1CC[C@]2(C)[C@@H]1[C@H](O)C[C@@H]1[C@@]3(C)CC[C@H](O[C@@H]4O[C@H](CO)[C@@H](O)[C@H](O)[C@H]4O[C@@H]4O[C@H](CO)[C@@H](O)[C@H](O)[C@H]4O)C(C)(C)[C@@H]3CC[C@]12C [20(S)-Ginsenoside Rg3] | 1.062 | 0.8564 |  |  |  |  |  |  | Difference [1, 3]: −0.21; Cholesterol-free media + simvastatin (0.04 μM) [2, 18]: 1.721; Complete Media [2, 19]: 1.403; Difference [2, 7]: −0.32
O=C1C(CC[S+]([O-])c2ccccc2)C(=O)N(c2ccccc2)N1c1ccccc1 (stereo not drawn) [Sulfinpyrazone] | 1.3 | 0.9417 |  |  |  |  |  | −0.17 | Difference [1, 8]: −0.36; Cholesterol-free media + simvastatin (0.04 μM) [2, 5]: 1.076; Complete Media [2, 6]: 0.9093
C[C@@H]1C[C@H]2[C@@H]3CCC4=CC(=O)C=C[C@]4(C)[C@@]3(F)[C@@H](O)C[C@]2(C)[C@@]1(O)C(=O)COP(=O)([O-])[O-].[Na+].[Na+] [Dexamethasone phosphate disodium] |  |  | 0.6625 | 1.229 | 0.57 | 0.7426 | 0.7227 |  | Difference [1, 15]: −0.02
COC(=O)C1=C(C)NC(C)=C(C(=O)OCCN2CCN(C(c3ccccc3)c3ccccc3)CC2)C1c1cccc([N+](=O)[O-])c1 (stereo not drawn) [Manidipine (dihydrochloride)] |  |  |  |  | 0.03 |  |  |  | Difference [1, 24]: −0.08; Cholesterol-free [1, 25]: 0.814; Complete [1, 10]: 0.7357; Cholesterol-free media + simvastatin (0.04 μM) [2, 22]: 1.023; Complete Media [2, 23]: 1.051
Cc1c(Cl)cccc1Nc1ccccc1C(=O)O [Tolfenamic Acid] | 1.332 | 0.9309 |  |  | 0.03 |  |  |  | Difference [1, 8]: −0.40; Cholesterol-free media + simvastatin (0.04 μM) [2, 22]: 0.9725; Complete Media [2, 23]: 0.9986
